# Assay results published in patent US9409905B2, “Antibacterial compounds and methods for use” (PTC THERAPEUTICS, INC., priority 2011, dated 2016).
# Columns and labels:
# [1] = test system: Moraxella catarrhalis (M. catarrhalis) 25238; assay: Antibacterial activity, MIC (Table 7); format: cell-based
# In short: (§1)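 Activity was determined by microbroth dilution. MIC, in μg/mL, is the lowest drug concentration that prevents macroscopically visible growth under the test conditions.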
# [2] = test system: Escherichia coli (E. coli) BAS849; assay: Antibacterial activity, microbroth dilution MIC (Table 1); format: cell-based; details: microbroth dilution, super sensitive Gram-negative E. coli BAS849, read-out: MIC, BAS849
# In short: (§2)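 Growth inhibition by microbroth dilution. MIC = lowest μg/mL with no visible growth. Strain 25922 is the control Gram-negative; BAS849 is hypersensitive.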
# [3] = test system: Staphylococcus aureus (S. aureus) 29213; assay: as above; format: cell-based; details: microbroth dilution, Gram-positive S. aureus 29213, read-out: MIC, 29213
# In short: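 In a microbroth dilution test, the minimum inhibitory concentration was defined as the lowest compound level preventing growth seen by eye, and was given in μg/mL.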
# E. coli LZ3111 = assay: Antibacterial activity, MIC, quinolone resistant strain (Table 2); format: cell-based; details: Escherichia coli, LZ3111, read-out: MIC LZ3111
# In short: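 MIC values (μg/mL) came from a microbroth dilution assay, scored as the lowest drug concentration at which no growth was visible by eye.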
# A. baumannii MXX2240 = assay: Antibacterial activity, MIC, resistant strain (Table 4); format: cell-based; details: Acinetobacter baumannii, MXX2240; resistant A. baumannii MMX2240, multi-drug resistant clinical isolate; read-out: MIC, MMX2240
# In short: (§3)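 Values are MICs in μg/mL, read as the lowest compound concentration at which no growth is visible by eye. They come from a microbroth dilution method.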
# K. pneumoniae MXX1232 = assay: as above; format: cell-based; details: Klebsiella pneumoniae, MXX1232; resistant K. pneumoniae MMX1232, multi-drug resistant clinical isolate; read-out: MIC, MMX1232
# In short: as §3
# [4] = test system: Neisseria meningitidis (N. meningitidis) 13090; assay: Antibacterial activity, MIC (Table 8); format: cell-based
# In short: as §1
# [5] = test system: Acinetobacter baumannii (A. baumannii) BAA747; assay: Antibacterial activity, MIC (Table 4); format: cell-based; details: A. baumannii BAA747, read-out: MIC, BAA747
# In short: as §3
# [6] = test system: Klebsiella pneumoniae (K. pneumoniae) 35657; assay: Antibacterial activity, MIC (Table 4); format: cell-based; details: K. pneumoniae 35657, read-out: MIC, 35657
# In short: as §3
# [7] = test system: Haemophilus influenzae (H. influenzae) 49247; assay: Antibacterial activity, MIC (Table 6); format: cell-based
# In short: as §1
# E. coli ELZ4000 = assay: Antibacterial activity, MIC, multi-drug resistant clinical isolate (Table 3); format: cell-based; details: Escherichia coli, ELZ4000, read-out: MIC ELZ4000
# In short: (§4)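 Compounds were serially diluted in broth microdilution format and growth was scored visually; the MIC is the lowest concentration at which no macroscopically visible growth occurred, expressed in μg/mL.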
# E. coli ELZ4251 = assay: as above; format: cell-based; details: Escherichia coli
# In short: as §4
# [8] = test system: Pseudomonas aeruginosa (P. aeruginosa) 27853; assay: Antibacterial activity, MIC (Table 5); format: cell-based; details: P. aeruginosa 27853, read-out: MIC, 27853
# In short: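 Values are MICs in μg/mL, read as the lowest concentration at which no growth is visible by eye. They were determined by a microbroth dilution method.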
# E. coli 25922 = assay: Antibacterial activity, microbroth dilution MIC (Table 1); format: cell-based, Escherichia coli; details: Escherichia coli; microbroth dilution; control Gram-negative E. coli 25922 strain; read-out: MIC, 25922
# In short: as §2
Compound,MIC [1] [µg/mL],MIC [2] [µg/mL],MIC [3] [µg/mL],MIC (E. coli LZ3111) [µg/mL],MIC (A. baumannii MXX2240) [µg/mL],MIC (K. pneumoniae MXX1232) [µg/mL],MIC [4] [µg/mL],MIC [5] [µg/mL],MIC [6] [µg/mL],MIC [7] [µg/mL],MIC (E. coli ELZ4000) [µg/mL],MIC (E. coli ELZ4251) [µg/mL],MIC [8] [µg/mL],MIC (E. coli 25922) [µg/mL]
"CCc1c(-c2ccc3c(c2)cc(CN2CCC[C@H](N)C2)n3C)[nH]c(=O)c(C(=O)O)c1O [Cpd 253, (S)-6-(2-((3-aminopiperidin-1-yl)methyl)-1-methyl-1H-indol-5-yl)-5-ethyl-4-hydroxy-2-oxo-1,2-dihydropyridine-3-carboxylic acid]",3.5 to 12.5,< 1,12.5 to 150,3.5 to 12.5,12.5 to 150,12.5 to 150,1 to 3.5,12.5 to 150,1 to 3.5,3.5 to 12.5,12.5 to 150,12.5 to 150,12.5 to 150,1 to 3.5
"CCc1c(-c2ccc3c(c2)cc(CN2CCC(NC)CC2)n3C)[nH]c(=O)c(C(=O)O)c1O [Cpd 256, 5-ethyl-4-hydroxy-6-(1-methyl-2-((4-(methylamino)piperidin-1-yl)methyl)-1H-indol-5-yl)-2-oxo-1,2-dihydropyridine-3-carboxylic acid]",1 to 3.5,< 1,3.5 to 12.5,1 to 3.5,12.5 to 150,12.5 to 150,1 to 3.5,12.5 to 150,1 to 3.5,1 to 3.5,12.5 to 150,12.5 to 150,3.5 to 12.5,1 to 3.5
"CCc1c(-c2ccc3c(c2)cc(CN2CCC[C@H](NC)C2)n3C)[nH]c(=O)c(C(=O)O)c1O [Cpd 257, (S)-5-ethyl-4-hydroxy-6-(1-methyl-2-((3-(methylamino)piperidin-1-yl)methyl)-1H-indol-5-yl)-2-oxo-1,2-dihydropyridine-3-carboxylic acid]",3.5 to 12.5,< 1,12.5 to 150,3.5 to 12.5,12.5 to 150,12.5 to 150,1 to 3.5,12.5 to 150,3.5 to 12.5,3.5 to 12.5,12.5 to 150,12.5 to 150,12.5 to 150,3.5 to 12.5
"CCc1c(-c2ccc3c(c2)cc(CNC2(C)CC2)n3C)[nH]c(=O)c(C(=O)O)c1O [Cpd 275, 5-ethyl-4-hydroxy-6-(1-methyl-2-((1-methylcyclopropylamino)methyl)-1H-indol-5-yl)-2-oxo-1,2-dihydropyridine-3-carboxylic acid]",< 1,< 1,3.5 to 12.5,< 1,< 1,12.5 to 150,< 1,< 1,1 to 3.5,< 1,1 to 3.5,1 to 3.5,3.5 to 12.5,< 1
"CCc1c(-c2ccc3c(c2)cc(CN2C[C@H]4CC[C@@H](N)[C@H]4C2)n3C)[nH]c(=O)c(C(=O)O)c1O [Cpd 276, 6-(2-(((3aR,4R,6aS)-4-aminohexahydrocyclopenta[c]pyrrol-2(1H)-yl)methyl)-1-methyl-1H-indol-5-yl)-5-ethyl-4-hydroxy-2-oxo-1,2-dihydropyridine-3-carboxylic acid]",1 to 3.5,< 1,3.5 to 12.5,3.5 to 12.5,12.5 to 150,12.5 to 150,< 1,12.5 to 150,1 to 3.5,1 to 3.5,12.5 to 150,12.5 to 150,12.5 to 150,1 to 3.5
